Read-outs that look alike come from different tables or passages of the source.

The subject of series [1] is U87MG cells. Nature of the series: Antiproliferative activity, 2D monolayer, SRB assay. The series is classed as cell-based, human. The following applies: for PI (phototoxicity index) 2D: IC50 dark / IC50 420 nm irradiated; for IC50: U87MG 2D monolayer, 90 min treatment, SRB. As for the experimental part:
The antiproliferative activity of the compounds under investigation was assessed using the Sulforhodamine B (SRB) assay on both 2D cell monolayers and 3D spheroids. For the 2D cell monolayer assay, cells were seeded in 96-well tissue culture plates at a density of 3 × 10^3 cells/well in 100 μL of culture medium. Following overnight incubation in a humidified CO2 incubator, the medium was replaced, and the cells were treated with the investigated compounds in a final volume of 200 μL/well of Earle’s Balanced Salt Solution (EBSS). The cells were then exposed to the tested compounds for 1.5 h under dark conditions (5% CO2, 37 °C) and subsequently irradiated with blue light (420 nm) for 30 min at an intensity of 58 W/m^2. After treatment, the samples were washed with Phosphate-Buffered Saline (PBS) and replenished with 200 μL of culture medium. Following an additional 70-h incubation, the cells were washed with PBS, fixed with trichloroacetic acid at 4 °C for 1 h, and stained with 0.4% SRB dye for 30 min. The stained cells were dissolved with Tris (10 mM), and the cell viability was assessed by measuring the absorbance at 570 nm using an Absorbance Reader (SPARK TECAN, SCHOELLER). […] After the 72-h spheroid formation period, the samples were treated and irradiated as described for the 2D cultures. […] The luminescence signal was detected using the plate reader SPARK (Tecan, Manedorf, Switzerland), and the IC50 values were calculated from the survival curves. All experiments were conducted in triplicate to ensure the reliability and reproducibility of the results. Furthermore, the concentrations of the compounds in the medium during the treatment were verified using Flame Atomic Absorption Spectroscopy (FAAS) or Inductively Coupled Plasma Mass Spectrometry (ICP-MS). […]
drug-free incubation. c IC50 values were determined by SRB assay. d IC50 values were determined by CellTiter-Glo® 3D chemiluminescent assay. e PI - phototoxicity index was calculated as the ratio of IC50 determined under the dark conditions / IC50 determined for 420 […]
models under irradiation conditions.

Series [2] has as its system U87MG spheroids. The series can be described thus: Antiproliferative activity, 3D spheroids, CellTiter-Glo 3D assay. The series is classed as cell-based, human. As to conditions: for PI (phototoxicity index) 3D: IC50 dark / IC50 420 nm irradiated; for IC50: U87MG 3D spheroids, 90 min treatment, CellTiter-Glo 3D; for TMI (3D/2D): ratio of IC50 for 3D and 2D models under irradiation. The procedure:
The antiproliferative activity of the compounds under investigation was assessed using the Sulforhodamine B (SRB) assay on both 2D cell monolayers and 3D spheroids. For the 2D cell monolayer assay, cells were seeded in 96-well tissue culture plates at a density of 3 × 10^3 cells/well in 100 μL of culture medium. Following overnight incubation in a humidified CO2 incubator, the medium was replaced, and the cells were treated with the investigated compounds in a final volume of 200 μL/well of Earle’s Balanced Salt Solution (EBSS). The cells were then exposed to the tested compounds for 1.5 h under dark conditions (5% CO2, 37 °C) and subsequently irradiated with blue light (420 nm) for 30 min at an intensity of 58 W/m^2. After treatment, the samples were washed with Phosphate-Buffered Saline (PBS) and replenished with 200 μL of culture medium. Following an additional 70-h incubation, the cells were washed with PBS, fixed with trichloroacetic acid at 4 °C for 1 h, and stained with 0.4% SRB dye for 30 min. The stained cells were dissolved with Tris (10 mM), and the cell viability was assessed by measuring the absorbance at 570 nm using an Absorbance Reader (SPARK TECAN, SCHOELLER). The absorbance readings were then converted to the percentage of control (% cell survival), and the antiproliferative effects were expressed as IC50 values, which were calculated from curves plotting cell survival (%) versus drug concentration (μM) (IC50 = the concentration of the agent that inhibits cell growth by 50%). For experiments with 3D spheroids, 2500 single cells/well were seeded on ultralow attachment U-shape 96-well plates (Corning, USA) and cultured for 72 h in 3D forming medium DMEM-F12 ham medium supplemented with growth and spheroid forming factors: 2% B27 (Thermo Fisher Scientific Inc., MA, USA), epidermal growth factor (EGF; Sigma-Aldrich, Germany, 20 ng mL^–1), fibroblast growth factor (FGF2; Sigma-Aldrich, Germany, 10 ng mL^–1), and BSA (0.15%). After the 72-h spheroid formation period, the samples were treated and irradiated as described for the 2D cultures. Subsequently, the samples were cultured in the 3D forming medium for an additional 70 h, and the antiproliferative potency of the tested compounds against spheroids was determined by assessing changes in IC50 values using the CellTiterGlo-3D assay (Promega). The luminescence signal was detected using the plate reader SPARK (Tecan, Manedorf, Switzerland), and the IC50 values were calculated from the survival curves. All experiments were conducted in triplicate to ensure the reliability and reproducibility of the results. Furthermore, the concentrations of the compounds in the medium during the treatment were verified using Flame Atomic Absorption Spectroscopy (FAAS) or Inductively Coupled Plasma Mass Spectrometry (ICP-MS).
The antiproliferative activity (IC50 valuesa) of the investigated compounds determined in 2D and 3D models of U87MG cellsb
Dark Irradiated PId Dark Irradiated PIe (3D/2D) […]
a Concentration that causes 50% inhibition of cell proliferation. b Cell monolayer or generated 3D spheroids were treated for 90 min with increasing concentrations of the investigated compounds, followed by 30 min of irradiation with blue light (420 nm; 58 Wm-2) and 70 h of drug-free incubation. c IC50 values were determined by SRB assay. d IC50 values were determined by CellTiter-Glo® 3D chemiluminescent assay. e PI - phototoxicity index was calculated as the ratio of IC50 determined under the dark conditions / IC50 determined for 420 […]
f TMI – tissue-mass index was calculated as the ratio of IC50 values determined for 3D and 2D models under irradiation conditions.
For orientation: ATP-based viability assays read luminescence as a measure of living cells.

A short description of series [3]: Stability in the dark by UV/vis spectroscopy. It counts as physicochemical. The following applies: DMSO, water, cell culture medium (RPMI), presence of glutathione; up to 24h. As for the experimental part:
The stability of complex Ir10 was studied in DMSO, water (1% DMSO), and RPMI (5% DMSO) using UV/vis spectroscopy at different times in the absence and presence of GSH (10 mM) or NADH (100 μM) to mimic the cellular and physiological conditions (Figure S6).

Setting [4] is: dark, 70 h drug-free incubation, read-out: IC50 2D Dark.
The mark [5] stands for this setting: 30 min blue light 420 nm 58 W m-2, 70 h drug-free, read-out: IC50 2D Irradiated.
Where [6] appears, read: dark, 70 h drug-free, read-out: IC50 3D Dark.
The mark [7] stands for this setting: 30 min blue light 420 nm 58 W m-2, 70 h drug-free, read-out: IC50 3D Irradiated.

Consider `Cc1ccc(-c2cc3[n+]4c(c2)-c2cccc[n+]2[Ir-3]42([Cl])([c]4c(ccc5c4OCO5)-c4n(C)c5ccccc5[n+]42)[n+]2ccccc2-3)cc1.F[P-](F)(F)(F)(F)F` [Ir9], for which, in series [1], the “PI (phototoxicity index) 2D” value was found to be 4.6. Besides, the IC50 was 6.2 ± 0.7 µM in series [1] (setting [4]), 1.3 ± 0.2 µM in series [1] (setting [5]), 18.9 ± 0.2 µM in series [2] (setting [6]) and 7.3 ± 0.3 µM in series [2] (setting [7]). Besides, in series [2], the “PI (phototoxicity index) 3D” value is 2.6. For the same compound, in series [2], the “TMI (3D/2D)” value was 5.6.

Turning to `Cc1ccc(-c2cc3[n+]4c(c2)-c2cccc[n+]2[Ir-3]42([Cl])([c]4ccsc4-c4n(C)c5ccccc5[n+]42)[n+]2ccccc2-3)cc1.F[P-](F)(F)(F)(F)F` [Ir8], the “PI (phototoxicity index) 2D” value in series [1] stood at 12. Moreover, the IC50 stood at 9.3 ± 0.9 µM in series [1] (setting [4]), 0.8 ± 0.05 µM in series [1] (setting [5]), 19.3 ± 0.7 µM in series [2] (setting [6]) and 7 ± 0.9 µM in series [2] (setting [7]). Further, in series [2], the “PI (phototoxicity index) 3D” value amounted to 2.8. Also, the “TMI (3D/2D)” value in series [2] stood at 8.8.

Take `Cc1ccc(-c2cc3[n+]4c(c2)-c2cccc[n+]2[Ir-3]42([Cl])([c]4ccccc4-c4n(Cc5ccc(C(F)(F)F)cc5)c5ccccc5[n+]42)[n+]2ccccc2-3)cc1.F[P-](F)(F)(F)(F)F` [Ir2]: the “PI (phototoxicity index) 2D” value in series [1] came out at 16. For the same compound, the IC50 in series [1] (setting [4]) was 6.9 ± 0.4 µM; in series [1] (setting [5]), 0.43 ± 0.02 µM; in series [2] (setting [6]) it was 14.9 ± 0.5 µM; in series [2] (setting [7]) it was 5 ± 0.2 µM. Also, the “PI (phototoxicity index) 3D” value in series [2] was 3.0. Besides, in series [2], the “TMI (3D/2D)” value is 11.6.

As to `Cc1ccc(-c2cc3[n+]4c(c2)-c2cccc[n+]2[Ir-3]42([Cl])([c]4ccsc4-c4n(Cc5ccc(C(F)(F)F)cc5)c5ccccc5[n+]42)[n+]2ccccc2-3)cc1.F[P-](F)(F)(F)(F)F` [Ir1], the “PI (phototoxicity index) 2D” value in series [1] amounted to 3.5. The IC50 in series [1] (setting [4]) came to 4.3 ± 0.1 µM; in series [1] (setting [5]), 1.3 ± 0.1 µM; in series [2] (setting [6]) it was 16.4 ± 0.2 µM; in series [2] (setting [7]), 5.7 ± 0.7 µM. Further, in series [2], the “PI (phototoxicity index) 3D” value came to 2.9. Moreover, the “TMI (3D/2D)” value in series [2] was 4.4.

For `Cc1ccc(-c2cc3[n+]4c(c2)-c2cccc[n+]2[Ir-3]42([Cl])([c]4cc5ccccc5cc4-c4n(C)c5ccccc5[n+]42)[n+]2ccccc2-3)cc1.F[P-](F)(F)(F)(F)F` [Ir7], the “PI (phototoxicity index) 2D” value in series [1] was determined as 4.7. Also, the IC50 in series [1] (setting [4]) is 7.1 ± 0.4 µM; in series [1] (setting [5]), 1.5 ± 0.2 µM; in series [2] (setting [6]), 10.8 ± 1.6 µM; in series [2] (setting [7]), 6.7 ± 0.6 µM. For the same compound, the “PI (phototoxicity index) 3D” value in series [2] was determined as 1.6. Further, the “TMI (3D/2D)” value in series [2] is 4.5.

With `Cc1ccc(-c2cc3[n+]4c(c2)-c2cccc[n+]2[Ir-3]42([Cl])([c]4ccccc4-c4n(C)c5ccccc5[n+]42)[n+]2ccccc2-3)cc1.F[P-](F)(F)(F)(F)F` [Ir6], the “PI (phototoxicity index) 2D” value in series [1] is on record as 23. Also, the IC50 stood at 23.9 ± 3.1 µM in series [1] (setting [4]), 1 ± 0.1 µM in series [1] (setting [5]), 26 ± 5.1 µM in series [2] (setting [6]) and 8.3 ± 1.1 µM in series [2] (setting [7]). For the same compound, the “PI (phototoxicity index) 3D” value in series [2] came to 3.1. The “TMI (3D/2D)” value in series [2] stood at 8.3.

For the compound `COC(=O)c1ccc2c(c1)[n+]1c(n2Cc2ccc(C(F)(F)F)cc2)-c2cccc[c]2[Ir-3]123([Cl])[n+]1ccccc1-c1cc(-c4ccc(C)cc4)cc([n+]12)-c1cccc[n+]13.F[P-](F)(F)(F)(F)F` [Ir10], the “PI (phototoxicity index) 2D” value in series [1] came to 15.5. Also, the IC50 worked out at 34.2 ± 5.3 µM in series [1] (setting [4]), 2.2 ± 0.9 µM in series [1] (setting [5]), 41.3 ± 1.6 µM in series [2] (setting [6]) and 10.5 ± 0.6 µM in series [2] (setting [7]). Moreover, the “PI (phototoxicity index) 3D” value in series [2] was 3.9. Further, the “TMI (3D/2D)” value in series [2] turned out to be 4.8. In addition, in series [3], the “stability in the dark” value is “stable”.

A word on the IC50: it is the point on the concentration scale where inhibition reaches its midpoint.
